Consider 43 molecules from patent publication US20070032529A1, “Pyrazole compounds and their use as antidiabetes agents” (Japan Tobacco Inc., priority 2005, published 2007).

pIC50: −log10 of the molar value.

The first assay concerns the target T1, recombinant human liver glycogen phosphorylase (Homo sapiens, UniProt P06737).
T1 construct: made in house; host or cells: Sf9 insect cells (crude homogenate, diluted, used as the enzyme solution)
T1 sequence (P06737 1-847): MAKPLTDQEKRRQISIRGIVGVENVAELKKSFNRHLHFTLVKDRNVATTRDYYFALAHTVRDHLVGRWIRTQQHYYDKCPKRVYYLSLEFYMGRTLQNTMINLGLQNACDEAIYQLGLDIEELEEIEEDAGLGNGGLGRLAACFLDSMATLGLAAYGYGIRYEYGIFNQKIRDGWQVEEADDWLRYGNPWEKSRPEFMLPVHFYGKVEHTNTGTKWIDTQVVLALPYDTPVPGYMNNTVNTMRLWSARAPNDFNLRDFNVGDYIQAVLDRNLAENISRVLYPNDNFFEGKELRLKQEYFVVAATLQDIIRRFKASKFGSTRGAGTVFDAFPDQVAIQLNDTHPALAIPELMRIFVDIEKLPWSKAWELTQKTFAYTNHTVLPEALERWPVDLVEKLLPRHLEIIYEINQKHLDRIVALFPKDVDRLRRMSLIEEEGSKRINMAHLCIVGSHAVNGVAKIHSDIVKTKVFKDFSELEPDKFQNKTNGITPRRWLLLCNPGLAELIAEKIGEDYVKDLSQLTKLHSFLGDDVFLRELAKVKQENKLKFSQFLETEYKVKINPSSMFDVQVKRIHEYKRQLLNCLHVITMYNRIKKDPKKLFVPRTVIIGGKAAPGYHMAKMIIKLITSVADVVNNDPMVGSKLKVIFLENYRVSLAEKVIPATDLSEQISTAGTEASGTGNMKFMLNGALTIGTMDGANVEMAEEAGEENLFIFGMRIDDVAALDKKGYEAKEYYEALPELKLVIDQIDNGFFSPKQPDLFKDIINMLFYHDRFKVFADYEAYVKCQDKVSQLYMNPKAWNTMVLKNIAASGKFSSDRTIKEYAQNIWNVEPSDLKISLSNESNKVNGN
In words: Measuring liver glycogen phosphorylase activity (forward reaction system, NADPH absorbance at 340 nm). The settings on record: compound concentration 100 nmol (in parentheses). In kind it is biochemical. The method, then: [Pharmacological Test] 1. Exemplary Test (1) Method for Measuring Liver Glycogen Phosphorylase Activity
The measurement of glycogen phosphorylase activity was carried out by a method using the forward reaction system.
The measurement of glycogen phosphorylase activity using the forward reaction system was carried out as follows. Glucose-1-phosphate prepared from glycogen by glycogen phosphorylase was converted into glucono-δ-lactone 6-phosphate through transphosphorylation and dehydrogenation using phosphoglucomutase and glucose-6-phosphate dehydrogenase (G6PDH). NADPH generated from NADP during the dehydrogenation by G6PDH was detected.
A homogenate of the Sf9 cells which expressed exogenously recombinant human liver glycogen phosphorylase was diluted with 100 mmol/LBES buffer solution (pH 6.8, containing 2 mmol/L EDTA) and the dilution was used as the enzyme solution of human liver glycogen phosphorylase. As the substrate, a phosphate buffer (containing 16 mmol/L KH2PO4, 24 mmol/L Na2HPO4) was used. A mixture of 8 U/mL phosphoglucomutase and 60 U/mL G6PDH was prepared in BES buffer solution. Buffer solution (containing 1.4 mmol/L NADP, 30 mmol/L MgCl2, 8 μmol/L glucose-1,6-diphosphate, 8 mg/mL glycogen, 40 mmol/LBES, 0.8 mmol/L EDTA) for reaction and a glucose solution (containing 75 mmol/L glucose, 100 mmol/LBES, 2 mmol/L EDTA) were prepared individually. The test compound was dissolved in 1% DMSO solution.
The enzymatic reaction was begun by adding 20 μL of the recombinant human liver glycogen phosphorylase solution and 20 μL of the mixture of phosphoglucomutase and G6PDH to the mixture of 20 μL of the glucose solution, 20 μL of the substrate, 100 μL of the buffer solution for reaction and 20 μL of the test compound solution. As control, 1% DMSO solution was added instead of the test compound. The mixture without the substrate was used as blank. The absorbance at 340 nm was measured immediately after the reaction started. The absorbance at 340 nm was measured again after reacting at room temperature for 75 minutes. The enzymatic activity is a value obtained by subtracting the blank variation in absorbance over 75 minutes from the variation in absorbance over 75 minutes.
The inhibition rate (%) of the test compound was calculated by the expression “(1-enzymatic activity of test compound/enzymatic activity of control)×100.”
A linear equation was determined from the two concentration points with the 50% inhibition rate therebetween, and the IC50 value was calculated from the concentration at the intersection of the line with the 50% inhibition rate.
“IC50” in the tables indicates the above-described enzyme inhibitory activity with respect to liver glycogen phosphorylase, and the activity to inhibit liver glycogen phosphorylase was represented as ++ when the IC50 value (nmol/L) was less than 100 nmol/L, as + when the IC50 value was between 100 nmol/L and 300 nmol/L. When IC50 is 300 nmol/L or more, an inhibition rate (%) at a certain concentration of the compound (I) of the present invention is shown in Tables. For example, when the inhibition rate is 20% at a concentration of 300 nmol, the rate is described as 20% (300).
Take `O=C(Nc1cccc2ncccc12)c1cc(NC(=O)c2cc(F)c(F)cc2Cl)[nH]n1` [Example 5-36]: the “inhibition rate (%) at a certain concentration” value is recorded as 17.8% (100).

Staying with this assay, now noted: compound concentration 100 nmol (in parentheses); read-out: inhibition rate (%) at a certain concentration.
Consider `O=C(N[C@@H]1c2ccccc2C[C@@H]1O)c1cc(NC(=O)c2cc(F)c(F)cc2Cl)[nH]n1` [Example 2-30], for which the inhibition at 0.1 µM amounted to 1.8%.

`O=C(Nc1cnccn1)c1cc(NC(=O)c2cc(F)c(F)cc2Cl)[nH]n1` [Example 1-144]: the inhibition at 0.1 µM was found to be 5%.

Regarding `O=C(NCCc1cccnc1)c1cc(NC(=O)c2cc(F)c(F)cc2Cl)[nH]n1` [Example 1-140], the inhibition at 0.1 µM came to 30.8%.

Still in this assay, the particulars now being: compound concentration 300 nmol (in parentheses); read-out: inhibition rate (%) at a certain concentration.
As for `CN1CCC(N(C)C(=O)c2cc(NC(=O)c3cc(F)c(F)cc3Cl)[nH]n2)CC1` [Example 1-83], the inhibition at 0.3 µM worked out at 6.1%.

Consider `O=C(NCc1ccccc1)c1cc(NC(=O)c2c(F)ccc(Cl)c2F)[nH]n1` [Example 4-21], for which the inhibition at 0.3 µM came out at 24.2%.

`CCCCN(C(=O)c1cc(NC(=O)c2cc(F)c(F)cc2Cl)[nH]n1)C1CCC(C(=O)OC(C)(C)C)CC1` (stereo not shown) [Example 1-104]: the inhibition at 0.3 µM was found to be 32.3%.

For the molecule `CCCCN(C(=O)c1cc(NC(=O)c2cc(F)c(F)cc2Cl)[nH]n1)C1CCNCC1` [Example 1-109], the inhibition at 0.3 µM amounted to 33.3%.

In the case of `CCCCN(C(=O)c1cc(NC(=O)c2cc(F)c(F)cc2Cl)[nH]n1)C1CCN(C(=O)C(=O)OCC)CC1` [Example 1-112], the inhibition at 0.3 µM stood at 49.9%.

As to `COCCN(Cc1ccccc1)C(=O)c1cc(NC(=O)c2cc(F)c(F)cc2Cl)[nH]n1` [Example 1-108], the inhibition at 0.3 µM was 45.3%.

As for `COc1ccc(F)cc1C(=O)Nc1cc(C(=O)NCc2ccccc2)n[nH]1` [Example 4-16], the inhibition at 0.3 µM is 5.1%.

As to `CCCCN(C(=O)c1cc(NC(=O)c2cc(F)c(F)cc2Cl)[nH]n1)C1CCS(=O)(=O)CC1` [Example 1-114], the inhibition at 0.3 µM stood at 38.9%.

The assay is the same for the next values; noted with them: compound concentration 1000 nmol (in parentheses); read-out: inhibition rate (%) at a certain concentration.
For the molecule `O=C(Nc1cc(C(=O)N(CCO)c2ccccc2)n[nH]1)c1cc(F)c(F)cc1Cl` [Example 1-77], the inhibition at 1 µM is 43.8%.

The same assay, now with this note: enzyme inhibitory activity with respect to liver glycogen phosphorylase; class symbols.
In the case of `O=C(NCc1ccc(Cl)s1)c1cc(NC(=O)c2cc(F)c(F)cc2Cl)[nH]n1` [Example 1-156], the pIC50 was greater than 7.00.

For the molecule `COc1ccsc1CNC(=O)c1cc(NC(=O)c2cc(F)c(F)cc2Cl)[nH]n1` [Example 1-160], the pIC50 was greater than 7.00.

As for `O=C(NCC1CCCCC1)c1cc(NC(=O)c2cc(F)c(F)cc2Cl)[nH]n1` [Example 1-76], the negative-log IC50 (pIC50) is greater than 7.00.

`Cc1nn(-c2ccccc2)nc1CNC(=O)c1cc(NC(=O)c2cc(F)c(F)cc2Cl)[nH]n1` [Example 1-61]: the pIC50 is greater than 7.00.

Regarding `CCc1nc(C)c(CNC(=O)c2cc(NC(=O)c3cc(F)c(F)cc3Cl)[nH]n2)o1` [Example 1-158], the pIC50 is greater than 7.00.

Take `CCN(CC)C(=O)c1cccc(CNC(=O)c2cc(NC(=O)c3cc(F)c(F)cc3Cl)[nH]n2)c1` [Example 1-119]: the pIC50 is 6.52 to 7.00.

For `O=C(O)CNC(=O)c1ccc(CNC(=O)c2cc(NC(=O)c3cc(F)c(F)cc3Cl)[nH]n2)cc1` [Example 5-6], the negative-log IC50 (pIC50) was greater than 7.00.

Take `O=C(NCc1csc(-c2ccccc2)n1)c1cc(NC(=O)c2cc(F)c(F)cc2Cl)[nH]n1` [Example 2-19]: the pIC50 was greater than 7.00.

`O=C(NCc1ccc(F)c(F)c1)c1cc(NC(=O)c2cc(F)c(F)cc2Cl)[nH]n1` [Example 1-22]: the pIC50 was greater than 7.00.

Consider `O=C(NCc1ccccc1)c1cc(NC(=O)c2ccc(Cl)cc2Cl)[nH]n1` [Example 4-7], for which the pIC50 was 6.52 to 7.00.

Take `O=C(NCc1ccc(N2CCS(=O)(=O)CC2)nc1)c1cc(NC(=O)c2cc(F)c(F)cc2Cl)[nH]n1` [Example 1-154]: the pIC50 was greater than 7.00.

Consider `CC(C)CN(C(=O)c1cc(NC(=O)c2cc(F)c(F)cc2Cl)[nH]n1)c1ccccc1` [Example 4-24], for which the pIC50 was 6.52 to 7.00.

For `O=C(NCc1cccnc1)c1cc(NC(=O)c2cc(F)c(F)cc2Cl)[nH]n1` [Example 1-1, 5-(2-chloro-4,5-difluoro-benzoylamino)-1H-pyrazole-3-carboxylic acid (pyridin-3-ylmethyl)-amide], the pIC50 was greater than 7.00.

Consider `CN(C)c1cccc(CNC(=O)c2cc(NC(=O)c3cc(F)c(F)cc3Cl)[nH]n2)c1` [Example 3-34], for which the pIC50 was greater than 7.00.

Turning to `Cc1ccc(CNC(=O)c2cc(NC(=O)c3cc(F)c(F)cc3Cl)[nH]n2)c(=O)[nH]1` [Example 2-33], the pIC50 is greater than 7.00.

`O=C(NCc1nccs1)c1cc(NC(=O)c2cc(F)c(F)cc2Cl)[nH]n1` [Example 1-51]: the negative-log IC50 (pIC50) is greater than 7.00.

With `O=C(NCc1ccccc1F)c1cc(NC(=O)c2cc(F)c(F)cc2Cl)[nH]n1` [Example 1-8], the pIC50 was greater than 7.00.

Turning to `COc1cccc(CNC(=O)c2cc(NC(=O)c3cc(F)c(F)cc3Cl)[nH]n2)c1OC` [Example 1-13], the pIC50 is greater than 7.00.

Regarding `O=C(NN1CCOCC1)c1ccc(CNC(=O)c2cc(NC(=O)c3cc(F)c(F)cc3Cl)[nH]n2)cc1` [Example 5-5], the pIC50 is greater than 7.00.

On to `CN(C)c1nc(CNC(=O)c2cc(NC(=O)c3cc(F)c(F)cc3Cl)[nH]n2)cs1` [Example 1-57], for which the negative logarithm of the IC50 (pIC50) is greater than 7.00.

For the molecule `O=C(NCc1cnccn1)c1cc(NC(=O)c2cc(F)c(F)cc2Cl)[nH]n1` [Example 1-152], the pIC50 is greater than 7.00.

Take `CCCN(C(=O)c1cc(NC(=O)c2cc(F)c(F)cc2Cl)[nH]n1)C1CCN(C(=O)CCC(=O)O)CC1` [Example 1-125]: the pIC50 is greater than 7.00.

Consider `O=C(NCc1ccc(-c2cccs2)s1)c1cc(NC(=O)c2cc(F)c(F)cc2Cl)[nH]n1` [Example 1-159], for which the pIC50 is 6.52 to 7.00.

The assay is the same for the next values; noted with them: figure in brackets (100); read-out: IC50: % value given with (100).
On to `CS(=O)(=O)Nc1cc(F)c(F)cc1C(=O)Nc1cc(C(=O)NCc2cccnc2)n[nH]1` [Example 7-12], for which the inhibition at 0.1 µM was found to be 8%.

Staying with this assay, now noted: figure in brackets (300); read-out: IC50 column: % value printed with (300).
In the case of `CN(C)C(=O)c1ccc(N(C)C(=O)c2cc(NC(=O)c3cc(F)c(Cl)cc3Cl)[nH]n2)cc1` [Example 6-4], the inhibition at 0.3 µM came out at 46.8%.

The assay is the same for the next values; noted with them: human liver glycogen phosphorylase; class symbol.
For `Cc1ccc(S(=O)(=O)Nc2ccccc2CNC(=O)c2cc(NC(=O)c3cc(F)c(F)cc3Cl)[nH]n2)cc1` [Example 6-38], the pIC50 is greater than 7.00.

As to `Cc1cc(F)c(F)cc1C(=O)Nc1cc(C(=O)NCc2ccnc(C#N)c2)n[nH]1` [Example 7-15], the pIC50 is greater than 7.00.

In the case of `CC(=Nc1cccc(CNC(=O)c2cc(NC(=O)c3cc(F)c(F)cc3Cl)[nH]n2)c1)N(C)C` [Example 6-25], the pIC50 was greater than 7.00.

For the molecule `Nc1cc(F)c(F)cc1CNC(=O)c1cc(NC(=O)c2cc(F)c(F)cc2Cl)[nH]n1` [Example 6-40], the pIC50 was greater than 7.00.

For `N/C(=N\O)c1cc(CNC(=O)c2cc(NC(=O)c3cc(F)c(F)cc3Cl)[nH]n2)ccn1` [Example 6-49], the pIC50 is greater than 7.00.
